From patent US20250353891A1 (MEDIMMUNE LIMITED, priority 2022, published 2025)
Starred links: 1 amine or outer side, 2 acyl side, 3 side chain; linkers in the order of their positions; H or OH if unused. Non-standard residues stand in square brackets, D forms with d. Residues, ends and D or L forms follow the SMILES beside them. Groups on a side chain read outwards from the residue. *: point of attachment. γGlu = O=C(O)[C@H](CCC(=O)[*:2])N[*:1]; Stearoyl = CCCCCCCCCCCCCCCCCC(=O)*; Palmitoyl = CCCCCCCCCCCCCCCC(=O)*; αMeF = C[C@](N)(Cc1ccccc1)C(=O)O; Myristoyl = CCCCCCCCCCCCCC(=O)*; PEG2 = NCCOCCOCCC(=O)O; Aib = CC(C)(N)C(=O)O

Assays:
[1] = target: human GLP-1 receptor (hGLP-1R) (Homo sapiens, UniProt P43220); assay: cAMP production (HTRF) in CHO cells expressing hGLP-1R; assay type: cell-based; design: expressed in transfected cells; settings: for EC50: Table 6, peptides modified at position 17, cAMP in CHO hGLP-1R cells, geometric mean, read-out: hGLP-1R EC50; for % Relative Potency Ratio: Table 6, % GLP-1R activity relative to GLP-1 / % GlucR activity relative to glucagon
Sequence of human GLP-1 receptor (hGLP-1R) (P43220 24-463): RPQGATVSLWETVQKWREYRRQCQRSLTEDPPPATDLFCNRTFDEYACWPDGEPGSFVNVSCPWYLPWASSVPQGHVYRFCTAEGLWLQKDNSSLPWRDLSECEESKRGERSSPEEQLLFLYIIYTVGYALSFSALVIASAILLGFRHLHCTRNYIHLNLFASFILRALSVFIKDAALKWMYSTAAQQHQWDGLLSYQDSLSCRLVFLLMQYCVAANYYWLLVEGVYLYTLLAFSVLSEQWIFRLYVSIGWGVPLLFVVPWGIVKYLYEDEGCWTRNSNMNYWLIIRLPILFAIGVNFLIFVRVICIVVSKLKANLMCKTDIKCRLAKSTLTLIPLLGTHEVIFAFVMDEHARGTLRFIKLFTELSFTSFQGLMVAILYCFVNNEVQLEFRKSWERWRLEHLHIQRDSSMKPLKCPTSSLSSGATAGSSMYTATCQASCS
Summary of the method: (§1)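 Cells were resuspended in assay buffer at batch-optimized density, typically 1×10^5 cells/mL for hGLP-1R and 2×10^5 cells/mL for hGCGR. After 30 min incubation at room temperature with compound, cAMP was measured by two-step HTRF. EC50 values came from 4-parameter logistic fits of % Delta F.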

[2] = target: human glucagon receptor (hGCGR) (Homo sapiens, UniProt P47871); assay: cAMP production (HTRF) in CHO cells expressing hGCGR; assay type: cell-based; design: expressed in transfected cells; settings: Table 6, peptides modified at position 17; cAMP in CHO hGCGR cells; geometric mean; read-out: hGluc-R EC50
Sequence of human glucagon receptor (hGCGR) (P47871 26-477): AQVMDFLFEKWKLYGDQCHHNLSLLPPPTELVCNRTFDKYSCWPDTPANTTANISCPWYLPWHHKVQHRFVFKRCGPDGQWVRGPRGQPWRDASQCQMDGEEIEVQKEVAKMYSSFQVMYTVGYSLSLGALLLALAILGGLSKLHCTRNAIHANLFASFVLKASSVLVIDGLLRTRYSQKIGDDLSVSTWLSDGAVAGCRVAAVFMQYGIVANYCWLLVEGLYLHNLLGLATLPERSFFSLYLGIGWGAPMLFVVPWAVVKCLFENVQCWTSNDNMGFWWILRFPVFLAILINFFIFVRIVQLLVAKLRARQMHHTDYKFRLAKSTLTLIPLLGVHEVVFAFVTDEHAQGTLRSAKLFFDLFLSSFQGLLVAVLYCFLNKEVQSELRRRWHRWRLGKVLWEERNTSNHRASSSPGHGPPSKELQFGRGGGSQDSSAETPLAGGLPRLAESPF
Summary of the method: as §1

| SMILES | EC50 [1] [pM] | % Relative Potency Ratio [1] | EC50 [2] [pM] |
| --- | --- | --- | --- |
| CCCCCCCCCCCCCCCC(=O)N[C@@H](CCC(=O)N[C@@H](CCC(=O)NCCOCCOCCC(=O)NCCOCCOCCC(=O)NCCCC[C@H](NC(=O)[C@H](CO)NC(=O)[C@H](CC(=O)O)NC(=O)[C@H](CC(C)C)NC(=O)[C@@H](NC(=O)[C@H](CCCCN)NC(=O)[C@H](CO)NC(=O)[C@@H](NC(=O)[C@H](CC(=O)O)NC(=O)[C@H](CO)NC(=O)[C@@H](NC(=O)[C@](C)(Cc1ccccc1)NC(=O)[C@H](CO)NC(=O)CNC(=O)[C@H](CCC(N)=O)NC(=O)[C@H](CO)NC(=O)[C@@H](N)Cc1c[nH]cn1)[C@@H](C)O)C(C)C)[C@@H](C)CC)C(=O)N[C@@H](C)C(=O)N[C@@H](C)C(=O)N[C@@H](CCC(N)=O)C(=O)N[C@@H](CC(=O)O)C(=O)N[C@@](C)(Cc1ccccc1)C(=O)N[C@H](C(=O)N[C@@H](CCC(=O)O)C(=O)N[C@@H](Cc1c[nH]c2ccccc12)C(=O)N[C@H](C(=O)N[C@H](C(=O)N[C@@H](CC(N)=O)C(=O)N[C@H](C(N)=O)[C@@H](C)O)[C@@H](C)CC)[C@@H](C)CC)C(C)C)C(=O)O)C(=O)O [Peptide 116] (H-HSQGS[αMeF]TSDVSKILDSK([PEG2-PEG2-γGlu-γGlu-Palmitoyl])AAQD[αMeF]VEWIINT-NH2; N-terminus assumed) | 24.3 | 0.8 | 10.3 |
| CCCCCCCCCCCCCCCC(=O)N[C@@H](CCC(=O)N[C@@H](CCC(=O)NCCOCCOCCC(=O)NCCOCCOCCC(=O)NCCCC[C@H](NC(=O)[C@H](CO)NC(=O)[C@H](CC(=O)O)NC(=O)[C@H](CC(C)C)NC(=O)[C@@H](NC(=O)[C@H](CCCCN)NC(=O)[C@H](CO)NC(=O)[C@@H](NC(=O)[C@H](CC(=O)O)NC(=O)[C@H](CO)NC(=O)[C@@H](NC(=O)[C@](C)(Cc1ccccc1)NC(=O)[C@H](CO)NC(=O)CNC(=O)[C@H](CCC(N)=O)NC(=O)[C@H](CO)NC(=O)[C@@H](N)Cc1c[nH]cn1)[C@@H](C)O)C(C)C)[C@@H](C)CC)C(=O)N[C@@H](C)C(=O)N[C@@H](C)C(=O)N[C@@H](CCC(N)=O)C(=O)N[C@@H](CC(=O)O)C(=O)N[C@@](C)(Cc1ccccc1)C(=O)N[C@H](C(=O)N[C@@H](CCC(N)=O)C(=O)NC(C)(C)C(=O)N[C@H](C(=O)N[C@H](C(=O)N[C@@H](CC(N)=O)C(=O)N[C@H](C(N)=O)[C@@H](C)O)[C@@H](C)CC)[C@@H](C)CC)C(C)C)C(=O)O)C(=O)O [Peptide 118] (H-HSQGS[αMeF]TSDVSKILDSK([PEG2-PEG2-γGlu-γGlu-Palmitoyl])AAQD[αMeF]VQ[Aib]IINT-NH2) | 1.07 | 2.2 | 1.2 |
| CCCCCCCCCCCCCC(=O)N[C@@H](CCC(=O)N[C@@H](CCC(=O)NCCOCCOCCC(=O)NCCOCCOCCC(=O)NCCCC[C@H](NC(=O)[C@H](CO)NC(=O)[C@H](CC(=O)O)NC(=O)[C@H](CC(C)C)NC(=O)[C@@H](NC(=O)[C@H](CCCCN)NC(=O)[C@H](CO)NC(=O)[C@@H](NC(=O)[C@H](CC(=O)O)NC(=O)[C@H](CO)NC(=O)[C@@H](NC(=O)[C@](C)(Cc1ccccc1)NC(=O)[C@H](CO)NC(=O)CNC(=O)[C@H](CCC(N)=O)NC(=O)[C@H](CO)NC(=O)[C@@H](N)Cc1c[nH]cn1)[C@@H](C)O)C(C)C)[C@@H](C)CC)C(=O)N[C@@H](C)C(=O)N[C@@H](C)C(=O)N[C@@H](CCC(N)=O)C(=O)N[C@@H](CC(=O)O)C(=O)N[C@@](C)(Cc1ccccc1)C(=O)N[C@H](C(=O)N[C@@H](CCC(N)=O)C(=O)NC(C)(C)C(=O)N[C@H](C(=O)N[C@H](C(=O)N[C@@H](CC(N)=O)C(=O)N[C@H](C(N)=O)[C@@H](C)O)[C@@H](C)CC)[C@@H](C)CC)C(C)C)C(=O)O)C(=O)O [Peptide 119] (H-HSQGS[αMeF]TSDVSKILDSK([PEG2-PEG2-γGlu-γGlu-Myristoyl])AAQD[αMeF]VQ[Aib]IINT-NH2; N-terminus assumed) | 1.39 | 2.4 | 1.7 |

The next lines start with the values.

| EC50 [1] [pM] | % Relative Potency Ratio [1] | EC50 [2] [pM] | SMILES |
| --- | --- | --- | --- |
| 1.81 | 2.9 | 2.62 | CCCCCCCCCCCCCCCCCC(=O)N[C@@H](CCC(=O)NCCOCCOCCC(=O)NCCOCCOCCC(=O)NCCCC[C@H](NC(=O)[C@H](CO)NC(=O)[C@H](CC(=O)O)NC(=O)[C@H](CC(C)C)NC(=O)[C@@H](NC(=O)[C@H](CCCCN)NC(=O)[C@H](CO)NC(=O)[C@@H](NC(=O)[C@H](CC(=O)O)NC(=O)[C@H](CO)NC(=O)[C@@H](NC(=O)[C@](C)(Cc1ccccc1)NC(=O)[C@H](CO)NC(=O)CNC(=O)[C@H](CCC(N)=O)NC(=O)[C@H](CO)NC(=O)[C@@H](N)Cc1c[nH]cn1)[C@@H](C)O)C(C)C)[C@@H](C)CC)C(=O)N[C@@H](C)C(=O)N[C@@H](C)C(=O)N[C@@H](CCC(N)=O)C(=O)N[C@@H](CC(=O)O)C(=O)N[C@@](C)(Cc1ccccc1)C(=O)N[C@H](C(=O)N[C@@H](CCC(N)=O)C(=O)NC(C)(C)C(=O)N[C@H](C(=O)N[C@H](C(=O)N[C@@H](CC(N)=O)C(=O)N[C@H](C(N)=O)[C@@H](C)O)[C@@H](C)CC)[C@@H](C)CC)C(C)C)C(=O)O [Peptide 120] (H-HSQGS[αMeF]TSDVSKILDSK([PEG2-PEG2-γGlu-Stearoyl])AAQD[αMeF]VQ[Aib]IINT-NH2; N-terminus assumed) |
| 1.5 | 1.6 | 1.2 | CCCCCCCCCCCCCCCC(=O)N[C@@H](CCC(=O)NCCOCCOCCC(=O)NCCOCCOCCC(=O)NCCCC[C@H](NC(=O)[C@H](CO)NC(=O)[C@H](CC(=O)O)NC(=O)[C@H](CC(C)C)NC(=O)[C@@H](NC(=O)[C@H](CCCCN)NC(=O)[C@H](CO)NC(=O)[C@@H](NC(=O)[C@H](CC(=O)O)NC(=O)[C@H](CO)NC(=O)[C@@H](NC(=O)[C@](C)(Cc1ccccc1)NC(=O)[C@H](CO)NC(=O)CNC(=O)[C@H](CCC(N)=O)NC(=O)[C@H](CO)NC(=O)[C@@H](N)Cc1c[nH]cn1)[C@@H](C)O)C(C)C)[C@@H](C)CC)C(=O)N[C@@H](C)C(=O)N[C@@H](C)C(=O)N[C@@H](CCC(N)=O)C(=O)N[C@@H](CC(=O)O)C(=O)N[C@@](C)(Cc1ccccc1)C(=O)N[C@H](C(=O)N[C@@H](CCC(N)=O)C(=O)NC(C)(C)C(=O)N[C@H](C(=O)N[C@H](C(=O)N[C@@H](CC(N)=O)C(=O)N[C@H](C(N)=O)[C@@H](C)O)[C@@H](C)CC)[C@@H](C)CC)C(C)C)C(=O)O [Peptide 121] (H-HSQGS[αMeF]TSDVSKILDSK([PEG2-PEG2-γGlu-Palmitoyl])AAQD[αMeF]VQ[Aib]IINT-NH2; N-terminus assumed) |
|  | 51.4 | 12.9 | CCCCCCCCCCCCCCCC(=O)N[C@@H](CCC(=O)N[C@@H](CCC(=O)NCCOCCOCCC(=O)NCCOCCOCCC(=O)NCCCC[C@H](NC(=O)[C@H](CO)NC(=O)[C@H](CC(=O)O)NC(=O)[C@H](CC(C)C)NC(=O)[C@@H](NC(=O)[C@H](CCCCN)NC(=O)[C@H](CO)NC(=O)[C@@H](NC(=O)[C@H](CC(=O)O)NC(=O)[C@H](CO)NC(=O)[C@@H](NC(=O)[C@](C)(Cc1ccccc1)NC(=O)[C@H](CO)NC(=O)CNC(=O)[C@H](CCC(N)=O)NC(=O)C(C)(C)NC(=O)[C@@H](N)Cc1c[nH]cn1)[C@@H](C)O)C(C)C)[C@@H](C)CC)C(=O)N[C@@H](C)C(=O)N[C@@H](C)C(=O)N[C@@H](CCC(N)=O)C(=O)N[C@@H](CC(=O)O)C(=O)N[C@@](C)(Cc1ccccc1)C(=O)N[C@H](C(=O)N[C@@H](CCC(N)=O)C(=O)N[C@H](C(=O)N[C@H](C(=O)N[C@@H](C)C(=O)N[C@@H](CC(N)=O)C(N)=O)[C@@H](C)CC)[C@@H](C)CC)C(C)C)C(=O)O)C(=O)O [Peptide 123] (H-H[Aib]QGS[αMeF]TSDVSKILDSK([PEG2-PEG2-γGlu-γGlu-Palmitoyl])AAQD[αMeF]VQIIAN-NH2; N-terminus assumed) |
| 1.27 | 15.2 | 9.79 | CCCCCCCCCCCCCCCCCC(=O)N[C@@H](CCC(=O)N[C@@H](CCC(=O)NCCOCCOCCC(=O)NCCOCCOCCC(=O)NCCCC[C@H](NC(=O)[C@H](CO)NC(=O)[C@H](CC(=O)O)NC(=O)[C@H](CC(C)C)NC(=O)[C@@H](NC(=O)[C@H](CCCCN)NC(=O)[C@H](CO)NC(=O)[C@@H](NC(=O)[C@H](CC(=O)O)NC(=O)[C@H](CO)NC(=O)[C@@H](NC(=O)[C@](C)(Cc1ccccc1)NC(=O)[C@H](CO)NC(=O)CNC(=O)[C@H](CCC(N)=O)NC(=O)C(C)(C)NC(=O)[C@@H](N)Cc1c[nH]cn1)[C@@H](C)O)C(C)C)[C@@H](C)CC)C(=O)N[C@@H](C)C(=O)N[C@@H](C)C(=O)N[C@@H](CCC(N)=O)C(=O)N[C@@H](CC(=O)O)C(=O)N[C@@](C)(Cc1ccccc1)C(=O)N[C@H](C(=O)N[C@@H](CCC(N)=O)C(=O)NC(C)(C)C(=O)N[C@H](C(=O)N[C@H](C(=O)N[C@@H](CC(N)=O)C(=O)N[C@H](C(N)=O)[C@@H](C)O)[C@@H](C)CC)[C@@H](C)CC)C(C)C)C(=O)O)C(=O)O [Peptide 124] (H-H[Aib]QGS[αMeF]TSDVSKILDSK([PEG2-PEG2-γGlu-γGlu-Stearoyl])AAQD[αMeF]VQ[Aib]IINT-NH2; N-terminus assumed) |
